Measured values reported in patent publication US20100048710A1, “Methods and Compositions for Modulating Muscle Fat in Livestock” (priority 2006, published 2010).
Entries after “also recorded” stand apart in the source; their conditions may differ.

How the values were obtained:
Format in all cases: cell-based
[1] = tested on: Heterogeneous SC preadipocytes; assay: GPDH activity in heterogeneous bovine SC preadipocytes, IBU, aspirin or indomethacin for 12 days (Example 5); conditions: for GPDH activity versus control: P<0.001
Procedure: (§1) Preadipocytes from IM and SC adipose tissue were isolated using a modification of Forest et al., 1987, Exp. Cell Res. 168:218-232. Cells were seeded at a density of 4,160 cells/cm^2 in 35 mm cell culture wells in DMEM with 5.5 mM glucose, supplemented with 100 units/ml penicillin G, 0.1 mg/ml streptomycin sulfate, 0.25 μg/ml amphotericin B, 0.05 mg/ml gentamicin, 33 μM biotin, 17 μM pantothenate, 200 μM ascorbate, 1 mM octanoate, and 10% fetal bovine serum. The cells were grown in a 37° C./5% CO2 incubator. Growth media was replaced every two days until the cells reached confluency (approximately 4 days), at which point the cells were washed twice with phosphate buffered saline (PBS) and differentiation treatments were applied. The differentiation medium consisted of DMEM with 5.5 mM glucose, 100 units/ml penicillin G, 0.1 mg/ml streptomycin sulfate, 0.25 μg/ml amphotericin B, 0.05 mg/ml gentamicin, 33 μM biotin, 17 μM pantothenate, 200 μM ascorbate, 280 nM bovine insulin, and 5 μl/ml bovine serum lipids (Ex-Cyte, Serologicals Corp., Norcross, Ga.). After 48 hours of differentiation media exposure, the cells were washed twice with PBS and differentiation media was replaced every two days for 10 days. Glycerol-3-phosphate dehydrogenase (GPDH) activity was quantified biochemically by measuring GPDH enzyme activity using a modification of a previously published method (Adams et al., J. Clin. Invest. 100:3149-3153). […] Media was changed every two days as previously described until day 12. Adipogenesis was quantitated by measuring GPDH activity. Data were analyzed using the mixed model procedure of SAS (SAS, Cary, N.C.). In all experiments, pooled cells from two wells of a 6 well (35 mm) plate were considered the experimental unit. When main effects were significant (P<0.05), differences between means were evaluated utilizing Tukey's multiple comparison test. […] To satisfy the conditions of normality and homogeneity of variance, GPDH data were loge transformed in Example 2, and GPDH data were square root transformed in Example 3.

[2] = tested on: Heterogeneous IM preadipocytes; assay: GPDH activity in heterogeneous bovine IM preadipocytes, IBU, aspirin or indomethacin for 12 days (Example 5)
Procedure: as §1

[3] = tested on: bovine preadipocytes isolated from subcutaneous (SC) adipose tissue; assay: GPDH activity in bovine SC preadipocytes, 48 h exposure to DEX and IBU (Example 3, FIG. 2); conditions: IBU for 48 hours with 25 nM DEX
Procedure: (§6) The cells were grown in a 37° C./5% CO2 incubator. Growth media was replaced every two days until the cells reached confluency (approximately 4 days), at which point the cells were washed twice with phosphate buffered saline (PBS) and differentiation treatments were applied. The differentiation medium consisted of DMEM with 5.5 mM glucose, 100 units/ml penicillin G, 0.1 mg/ml streptomycin sulfate, 0.25 μg/ml amphotericin B, 0.05 mg/ml gentamicin, 33 μM biotin, 17 μM pantothenate, 200 μM ascorbate, 280 nM bovine insulin, and 5 μl/ml bovine serum lipids (Ex-Cyte, Serologicals Corp., Norcross, Ga.). After 48 hours of differentiation media exposure, the cells were washed twice with PBS and differentiation media was replaced every two days for 10 days. […] After treatment for 48 hours, media was changed as previously described until day 10. Cells from two beef steers were used, and duplicates of each steer treatment were done. Adipogenesis was quantitated by measuring GPDH activity. Data were analyzed using the mixed model procedure of SAS (SAS, Cary, N.C.). In all experiments, pooled cells from two wells of a 6 well (35 mm) plate were considered the experimental unit. When main effects were significant (P<0.05), differences between means were evaluated utilizing Tukey's multiple comparison test.

[4] = tested on: bovine heterogeneous preadipocyte cultures from intramuscular (IM) adipose tissue; assay: GPDH activity in heterogeneous bovine IM preadipocytes, 12 day exposure with DEX (Example 4, FIG. 3)
Procedure: (§2) Preadipocytes from IM and SC adipose tissue were isolated using a modification of Forest et al., 1987, Exp. Cell Res. 168:218-232. Cells were seeded at a density of 4,160 cells/cm^2 in 35 mm cell culture wells in DMEM with 5.5 mM glucose, supplemented with 100 units/ml penicillin G, 0.1 mg/ml streptomycin sulfate, 0.25 μg/ml amphotericin B, 0.05 mg/ml gentamicin, 33 μM biotin, 17 μM pantothenate, 200 μM ascorbate, 1 mM octanoate, and 10% fetal bovine serum. The cells were grown in a 37° C./5% CO2 incubator. Growth media was replaced every two days until the cells reached confluency (approximately 4 days), at which point the cells were washed twice with phosphate buffered saline (PBS) and differentiation treatments were applied. […]
(§3) Glycerol-3-phosphate dehydrogenase (GPDH) activity was quantified biochemically by measuring GPDH enzyme activity using a modification of a previously published method (Adams et al., J. Clin. Invest. 100:3149-3153).
(§4) Media was changed every two days as previously described until day 12. Adipogenesis was quantitated by measuring GPDH activity.
(§5) Data were analyzed using the mixed model procedure of SAS (SAS, Cary, N.C.). […] When main effects were significant (P<0.05), differences between means were evaluated utilizing Tukey's multiple comparison test. […]

[5] = tested on: bovine preadipocytes isolated from intramuscular (IM) adipose tissue; assay: GPDH activity in bovine IM preadipocytes, 48 h exposure to DEX and IBU (Example 3, FIG. 2); conditions: 48 hours with 25 nM DEX
Procedure: as §6

[6] = tested on: bovine heterogeneous preadipocyte cultures from subcutaneous (SC) adipose tissue; assay: GPDH activity in heterogeneous bovine SC preadipocytes, 12 day exposure with DEX (Example 4, FIG. 3)
Procedure: as §2, §3, §4, §5

## CC(=O)Oc1ccccc1C(=O)O [Aspirin, aspirin]
[1]; SC preadipocytes, 500 μM, 12 days, alone
  GPDH activity, aspirin alone: did not affect GPDH activity; also recorded: did not enhance GPDH activity
[1]; SC preadipocytes, 500 μM, 12 days, with DEX
  GPDH activity, aspirin in combination with DEX: did not enhance GPDH activity
[2]; IM preadipocytes, 500 μM, 12 days, alone
  GPDH activity, aspirin alone: did not affect GPDH activity; also recorded: did not enhance GPDH activity
[2]; IM preadipocytes, 500 μM, 12 days, with DEX
  GPDH activity, aspirin in combination with DEX: did not enhance GPDH activity

## CC(C)Cc1ccc(C(C)C(=O)O)cc1 (centres unmarked) [IBU, 2-(p-isobutylphenyl)propionic acid]
[3]
  effect of IBU on DEX stimulation of GPDH activity: did not enhance DEX stimulation of GPDH activity
[1]; SC cells, IBU, 12 days, absence of DEX
  maximum induction of GPDH activity: 1.7 fold over control
[1]; SC preadipocytes, 10 μM IBU, 12 days, absence of DEX
  GPDH activity versus control: enhanced GPDH activity
[1]; SC preadipocytes, 100 μM IBU, 12 days, absence of DEX
  GPDH activity versus control: enhanced GPDH activity
[1]; SC preadipocytes, 500 μM IBU, 12 days, absence of DEX
  GPDH activity versus control: enhanced GPDH activity
[2]; IM cells, 1000 μM IBU, 12 days, absence of DEX, P=0.003
  GPDH activity versus control: higher than control
[2]; IM cells, IBU, 12 days, absence of DEX
  maximum induction of GPDH activity: 12 fold over control
[2]; IM preadipocytes, 500 μM IBU, 12 days, absence of DEX
  GPDH activity versus control: enhanced GPDH
[4]; 100 μM IBU
  effect of IBU on DEX induction of differentiation (GPDH): enhanced DEX induction of differentiation
[4]; 500 μM IBU
  effect of IBU on DEX induction of differentiation (GPDH): enhanced DEX induction of differentiation
[5]; 1000 μM IBU
  effect of IBU on DEX stimulation of GPDH activity: enhanced DEX stimulation of GPDH activity
[5]; 2000 μM IBU
  effect of IBU on DEX stimulation of GPDH activity: enhanced DEX stimulation of GPDH activity
[6]; SC cells, 100 μM IBU
  effect of IBU on DEX induction of differentiation (GPDH): enhanced DEX induction of differentiation
[6]; SC preadipocytes, 1000 μM IBU
  effect of IBU on DEX stimulation of GPDH: reduced DEX stimulation of GPDH

## COc1ccc2c(c1)c(CC(=O)O)c(C)n2C(=O)c1ccc(Cl)cc1 [Indomethacin, indomethacin]
[1]; SC preadipocytes, 500 μM, up to 12 days
  toxicity to cells: toxic to cells
[2]; IM preadipocytes, 500 μM, up to 12 days
  toxicity to cells: toxic to cells
